Data as given in US10131673B2, “Piperidine substituted tricyclic pyrazolo[1,5-a]pyrimidine derivatives with inhibitory activity on the replication of the respiratory syncytial virus (RSV)” (priority 2014, dated 2018).

Key:
rgRSV224 virus = assay: microbe, parasite or virus in culture; type: cell-based, respiratory syncytial virus (RSV); conditions: for EC50: human respiratory syncytial virus, HeLa, 72 h, read-out: RSV HELA pEC50 (converted); for RSV HELA pEC50: rgRSV224 virus MOI=1, HeLa cells, GFP expression three days post-virus exposure

Protocol for HeLa cells: Black 384-well clear-bottom microtiter plates (Corning, Amsterdam, The Netherlands) were filled via acoustic drop ejection using the echo liquid handler (Labcyte, Sunnyvale, Calif.). 200 nL of compound stock solutions (100% DMSO) were transferred to the assay plates. 9 serial 4-fold dilutions of compound were made, creating per quadrant the same compound concentration. The assay was initiated by adding 10 μL of culture medium to each well (RPMI medium without phenol red, 10% FBS-heat inactivated, 0.04% gentamycin (50 mg/mL). All addition steps are done by using a multidrop dispenser (Thermo Scientific, Erembodegem, Belgium). Next, rgRSV224 virus (MOI=1) diluted in culture medium was added to the plates. rgRSV224 virus is an engineered virus that includes an additional GFP gene (Hallak L K, Spillmann D, Collins P L, Peeples M E. Glycosaminoglycan sulfation requirements for respiratory syncytial virus infection; Journal of virology (2000), 74(22), 10508-13) and was in-licensed from the NIH (Bethesda, Md., USA). Finally, 20 μL of a HeLa cell suspension (3,000 cells/well) were plated. Medium, virus- and mock-infected controls were included in each test. The wells contain 0.05% DMSO per volume. Cells were incubated at 37° C. in a 5% CO2 atmosphere. Three days post-virus exposure, viral replication was quantified by measuring GFP expression in the cells by an in house developed MSM laser microscope (Tibotec, Beerse, Belgium). The EC50 was defined as the 50% inhibitory concentration for GFP expression. In parallel, compounds were incubated for three days in a set of white 384-well microtiter plates (Corning) and the cytotoxicity of compounds in HeLa cells was determined by measuring the ATP content of the cells using the ATPlite kit (Perkin Elmer, Zaventem, Belgium) according to the manufacturer's instructions. The CC50 was defined as the 50% concentration for cytotoxicity.

| Structure (SMILES) | EC50 (rgRSV224 virus) [nM] | TOX HELA pCC50 (HeLa cells) | RSV HELA pEC50 (rgRSV224 virus) |
| --- | --- | --- | --- |
| Cc1cccc2ncnc(N3CCCCC3c3cc4nc5c(c(N6CCOCC6)n4n3)CCOC5)c12 (stereo not shown) [Compound P29, 2-(1-(5-methylquinazolin-4-yl)piperidin-2-yl)-9-morpholino-7,8-dihydro-5H-pyrano[3,4-d]pyrazolo[1,5-a]pyrimidine] | 3720 | 4 | – |
| Cc1cccc2ncnc(N3CCCC[C@H]3c3cc4nc5c(c(C)n4n3)CCCC5)c12 [Compound P38] | – | 4.6 | 6.79 |
| Cc1ccc(NS(C)(=O)=O)c(C(=O)N2CCCCC2c2cc3nc4c(c(N)n3n2)CCCC4)c1 (stereo not shown) [Compound P19, N-(2-(2-(9-amino-5,6,7,8-tetrahydropyrazolo[5,1-b]quinazolin-2-yl)-piperidine-1-carbonyl)-4-methylphenyl)methanesulfonamide] | 19.5 | 4.3 | – |
| Cc1cccc2ncnc(N3CCCCC3c3cc4nc5c(c(N6CCOCC6)n4n3)CCC5)c12 (stereo not shown) [Compound P21, 4-(2-(1-(5-methylquinazolin-4-yl)piperidin-2-yl)-6,7-dihydro-5H-cyclopenta[d]pyrazolo[1,5-a]pyrimidin-8-yl)morpholine] | 708 | 4.6 | – |
| Cc1ccc(NS(C)(=O)=O)c(C(=O)N2CCCCC2c2cc3nc4c(c(N5CCOCC5)n3n2)COC4)c1 (stereo not shown) [Compound P25, N-(4-methyl-2-(2-(8-morpholino-5,7-dihydrofuro[3,4-d]pyrazolo[1,5-a]-pyrimidin-2-yl)piperidine-1-carbonyl)phenyl)methanesulfonamide] | 468 | 4 | – |
| Cc1cccc2ncnc(N3CCCCC3c3cc4nc5c(c(N6CCOCC6)n4n3)CCCC5)c12 (stereo not shown) [Compound P5, 4-(2-(1-(5-methylquinazolin-4-yl)piperidin-2-yl)-5,6,7,8-tetrahydropyrazolo[5,1-b]quinazolin-9-yl)morpholine] | 275 | 4.6 | – |
| Fc1cccc2ncnc(N3CCCCC3c3cc4nc5c(c(N6CCOCC6)n4n3)CCCC5)c12 (stereo not shown) [Compound P10, 4-(2-(1-(5-fluoroquinazolin-4-yl)piperidin-2-yl)-5,6,7,8-tetrahydropyrazolo-[5,1-b]quinazolin-9-yl)morpholine] | 891 | 4.6 | – |
| Cc1ccc(NS(C)(=O)=O)c(C(=O)N2CCCCC2c2cc3nc4c(c(N5CCOCC5)n3n2)CCC4)c1 (stereo not shown) [Compound P20, N-(4-methyl-2-(2-(8-morpholino-6,7-dihydro-5H-cyclopenta[d]pyrazolo-[1,5-a]pyrimidin-2-yl)piperidine-1-carbonyl)phenyl)methanesulfonamide] | 22.9 | 4.2 | – |
| Cc1cccc2ncnc(N3CCCCC3c3cc4nc5c(c(N6CCOCC6)n4n3)COCC5)c12 (stereo not shown) [Compound P30, 2-(1-(5-methylquinazolin-4-yl)piperidin-2-yl)-9-morpholino-6,8-dihydro-5H-pyrano[4,3-d]pyrazolo[1,5-a]pyrimidine] | 282 | 4 | – |
| Cc1ccc(NS(C)(=O)=O)c(C(=O)N2CCCCC2c2cc3nc4c(c(N(C)C)n3n2)CCCN4C)c1 (stereo not shown) [Compound P26, N-(2-(2-(9-(dimethylamino)-5-methyl-5,6,7,8-tetrahydropyrazolo-[1,5-a]pyrido[2,3-d]pyrimidin-2-yl)piperidine-1-carbonyl)-4-methylphenyl)-methane-sulfonamide] | 1.58 | 4.4 | – |
| Cc1ccc(NS(C)(=O)=O)c(C(=O)N2CCCCC2c2cc3nc4c(c(N5CCOCC5)n3n2)CCOC4)c1 (stereo not shown) [Compound P28, N-(4-methyl-2-(2-(9-morpholino-7,8-dihydro-5H-pyrano[3,4-d]pyrazolo-[1,5-a]pyrimidin-2-yl)piperidine-1-carbonyl)phenyl)methane-sulfonamide] | 355 | 4.6 | – |
| Cc1nc2cc([C@@H]3CCCCN3c3ncnc4cccc(C)c34)nn2c2c1CCCC2 [Compound P40] | – | 4.7 | 6.7 |
| Cc1cccc2ncnc(N3CCCCC3c3cc4nc5c(c(N(C)C)n4n3)CCCC5)c12 (stereo not shown) [Compound P16, N,N-dimethyl-2-(1-(5-methylquinazolin-4-yl)piperidin-2-yl)-5,6,7,8-tetrahydropyrazolo[5,1-b]quinazolin-9-amine] | 407 | 4 | – |
| Cc1cccc2nc(NS(C)(=O)=O)nc(N3CCCCC3c3cc4nc5c(c(N6CCOCC6)n4n3)COCC5)c12 (stereo not shown) [Compound P32, N-(5-methyl-4-(2-(9-morpholino-6,8-dihydro-5H-pyrano[4,3-d]pyrazolo-[1,5-a]pyrimidin-2-yl)piperidin-1-yl)quinazolin-2-yl)methanesulfonamide] | 55 | 4 | – |
| Cc1ccc(NS(C)(=O)=O)c(C(=O)N2CCCCC2c2cc3nc4c(c(N5CCOCC5)n3n2)CCCC4)c1 (racemic) [Compound P1, N-(4-methyl-2-(2-(9-morpholino-5,6,7,8-tetrahydropyrazolo[5,1-b]quinazolin-2-yl)piperidine-1-carbonyl)phenyl)methanesulfonamide] | 1.78 | 4.4 | – |
| Cc1cccc2ncnc(N3CCCCC3c3cc4nc5c(c(C)n4n3)CCCC5)c12 (stereo not shown) [Compound P35, 9-methyl-2-(1-(5-methylquinazolin-4-yl)piperidin-2-yl)-5,6,7,8-tetrahydropyrazolo[5,1-b]quinazoline] | 776 | 4.6 | – |
| Cc1nc2cc([C@H]3CCCCN3c3ncnc4cccc(C)c34)nn2c2c1CCCC2 [Compound P39] | – | 4.9 | 5.55 |
| Cc1ccc(NS(C)(=O)=O)c(C(=O)N2CCCCC2c2cc3nc4c(c(N5CCOCC5)n3n2)CCCCC4)c1 (stereo not shown) [Compound P23, N-(4-methyl-2-(2-(10-morpholino-6,7,8,9-tetrahydro-5H-cyclohepta[d]-pyrazolo[1,5-a]pyrimidin-2-yl)piperidine-1-carbonyl)phenyl)-methanesulfonamide] | 66.1 | 4.6 | – |
| Cc1cccc2ncnc(N3CCCCC3c3cc4nc5c(c(N6CCCC6)n4n3)CCC5)c12 (stereo not shown) [Compound P22, 2-(1-(5-methylquinazolin-4-yl)piperidin-2-yl)-8-(pyrrolidin-1-yl)-6,7-dihydro-5H-cyclopenta[d]pyrazolo[1,5-a]pyrimidine] | 282 | 4.6 | – |
| CCc1ccc2ncnc(N3CCCCC3c3cc4nc5c(c(N6CCOCC6)n4n3)CCCC5)c2c1C (stereo not shown) [Compound P13, 4-(2-(1-(6-ethyl-5-methylquinazolin-4-yl)piperidin-2-yl)-5,6,7,8-tetrahydropyrazolo[5,1-b]quinazolin-9-yl)morpholine] | 724 | 4.7 | – |
